Data from publication PMC8049364, “Quantification of Macrophage-Driven Inflammation During Myocardial Infarction with ^18F-LW223, a Novel TSPO Radiotracer with Binding Independent of the rs6971 Human Polymorphism” (Journal of Nuclear Medicine, 2021).

Assays:
[1] = Radiometabolite analysis of blood and tissue in naïve rats; assay type: in vivo, rat; settings: for Parent fraction: population curve
Method: Arterial blood samples were collected at 2, 5, 10, 20, 30, 60, and 120 min after radiotracer injection (69.7 ± 9.1 MBq [mean ± SEM], n = 17 rats), and heart, lung, and brain tissue samples were collected at 60 and 120 min. Blood and tissues were processed as detailed in the supplemental materials.
Invasive Input Function Measurement
Polyethylene catheters (PE50) filled with heparinized saline (20 IU/mL) were inserted into the left femoral artery and vein with the help of a stereomicroscope and securely fastened with ligatures (6-0 silk thread). […]
Radiometabolite Blood and Tissue Processing and Analysis
All blood samples were 1 mL each and manually collected from different animals to generate a population curve, in order to respect total blood volume limits for terminal arterial blood collections in rats. Following blood and tissue collection, all samples were […]
kept on ice until analyzed. Radioactivity in whole blood and plasma, as well as homogenized tissue samples, was assessed using a well-type γ-counter using a 400– 1400 keV window (Perkin Elmer Wizzard2, USA). Plasma samples (400 μl) and tissue samples (500 μl) were processed by acetonitrile denaturation (1:1.4 v/v) and analyzed by HPLC (Ultimate2000, ThermoFisher, UK) on a Luna C18(2) 10×250 mm, 10 μm column (Phenomenex, UK) with acetonitrile/water 70/30 and flow rate of 4 mL/min to estimate the […]
parent fraction. […]

[2] = Dosimetry from whole-body PET in mice (OLINDA/EXM, estimated for humans); assay type: in vivo
Method: Thirty-two PET scans were performed with ^18F-LW223 (17.8 ± 1.5 MBq, intravenous bolus, mean ± SEM). Naïve and MI rat scans were acquired immediately after intravenous bolus injection of ^18F-LW223. […] Dosimetry studies were conducted using mice and 240-min PET scans.
The following organs were identified as source organs: brain, heart, lung, gallbladder, liver, gut, adrenals, kidneys, and bladder. A whole-body VOI was drawn around the animal body and was used to quantify whole-body remainder activity as whole-body activity minus source-organ activity. At each time point, the measured activity of the source organs was expressed as the percentage injected dose. The residence time (τ), defined as the ratio of accumulated activity in the target organ (Ā) and injected activity (A0) (i.e., τ = Ā/A0 ([20])), was calculated as previously described ([21]). Calculated τ was normalized on the basis of the factors shown in Supplemental Table 3 ([22]–[26]) and entered into OLINDA/EXM software, version 1.0, to estimate organ doses and effective doses.
Organ Mouse Human Correction Factor
% Total body weight % Total body weight
Supplemental Table 3. Scaling factors for different organs in mice and humans based on their percentage contribution to total body weight. Data presented in this table was calculated based on previously published data.

CC[C@@H](C)N(C)C(=O)c1nc2ccccc2c(-c2ccccc2)c1C[18F] [^18F-LW223]
Parent fraction ([1]; 2 min): 0.95
Parent fraction ([1]; 5 min): 0.82
Parent fraction ([1]; 10 min): 0.81
Parent fraction ([1]; 20 min): 0.81
Parent fraction ([1]; 30 min): 0.77
Parent fraction ([1]; 120 min): 0.69
radiometabolites in brain, heart, and lung ([1]; rat, 60 and 120 min after administration): less than 12.7%
plasma to whole blood ratio ([1]; used for input function correction): 1.84
Effective dose ([2]; Female (n = 5)): 0.02 mSv/MBq
Estimated absorbed dose, Adrenals ([2]; Female (n = 5)): 3.67 ×10^−2 mGy/MBq
Estimated absorbed dose, Brain ([2]; Female (n = 5)): 0.56 ×10^−2 mGy/MBq
Estimated absorbed dose, Breasts ([2]; Female (n = 5)): 0.86 ×10^−2 mGy/MBq
Estimated absorbed dose, Gallbladder wall ([2]; Female (n = 5)): 2.46 ×10^−2 mGy/MBq
Estimated absorbed dose, Heart wall ([2]; Female (n = 5)): 1.89 ×10^−2 mGy/MBq
Estimated absorbed dose, Kidneys ([2]; Female (n = 5)): 1.54 ×10^−2 mGy/MBq
Estimated absorbed dose, Liver ([2]; Female (n = 5)): 1.95 ×10^−2 mGy/MBq
Estimated absorbed dose, Lower large intestine wall ([2]; Female (n = 5)): 9.26 ×10^−2 mGy/MBq
Estimated absorbed dose, Lung ([2]; Female (n = 5)): 3.31 ×10^−2 mGy/MBq
Estimated absorbed dose, Muscle ([2]; Female (n = 5)): 0.98 ×10^−2 mGy/MBq
Estimated absorbed dose, Osteogenic cells ([2]; Female (n = 5)): 1.52 ×10^−2 mGy/MBq
Estimated absorbed dose, Ovaries ([2]; Female (n = 5)): 1.66 ×10^−2 mGy/MBq
Estimated absorbed dose, Pancreas ([2]; Female (n = 5)): 1.26 ×10^−2 mGy/MBq
Estimated absorbed dose, Red marrow ([2]; Female (n = 5)): 0.98 ×10^−2 mGy/MBq
Estimated absorbed dose, Skin ([2]; Female (n = 5)): 0.74 ×10^−2 mGy/MBq
Estimated absorbed dose, Small intestine ([2]; Female (n = 5)): 1.30 ×10^−2 mGy/MBq
Estimated absorbed dose, Spleen ([2]; Female (n = 5)): 1.11 ×10^−2 mGy/MBq
Estimated absorbed dose, Stomach wall ([2]; Female (n = 5)): 1.15 ×10^−2 mGy/MBq
Estimated absorbed dose, Thymus ([2]; Female (n = 5)): 1.07 ×10^−2 mGy/MBq
Estimated absorbed dose, Thyroid ([2]; Female (n = 5)): 0.89 ×10^−2 mGy/MBq
Estimated absorbed dose, Total body ([2]; Female (n = 5)): 1.07 ×10^−2 mGy/MBq
Estimated absorbed dose, Upper large intestine wall ([2]; Female (n = 5)): 1.24 ×10^−2 mGy/MBq
Estimated absorbed dose, Urinary bladder wall ([2]; Female (n = 5)): 1.48 ×10^−2 mGy/MBq
Estimated absorbed dose, Uterus ([2]; Female (n = 5)): 1.29 ×10^−2 mGy/MBq
Effective dose ([2]; Male (n = 8)): 0.02 mSv/MBq
Estimated absorbed dose, Adrenals ([2]; Male (n = 8)): 2.22 ×10^−2 mGy/MBq
Estimated absorbed dose, Brain ([2]; Male (n = 8)): 0.59 ×10^−2 mGy/MBq
Estimated absorbed dose, Breasts ([2]; Male (n = 8)): 0.72 ×10^−2 mGy/MBq
Estimated absorbed dose, Gallbladder wall ([2]; Male (n = 8)): 2.01 ×10^−2 mGy/MBq
Estimated absorbed dose, Heart wall ([2]; Male (n = 8)): 2.03 ×10^−2 mGy/MBq
Estimated absorbed dose, Kidneys ([2]; Male (n = 8)): 1.57 ×10^−2 mGy/MBq
Estimated absorbed dose, Liver ([2]; Male (n = 8)): 1.30 ×10^−2 mGy/MBq
Estimated absorbed dose, Lower large intestine wall ([2]; Male (n = 8)): 7.82 ×10^−2 mGy/MBq
Estimated absorbed dose, Lung ([2]; Male (n = 8)): 3.10 ×10^−2 mGy/MBq
Estimated absorbed dose, Muscle ([2]; Male (n = 8)): 0.80 ×10^−2 mGy/MBq
Estimated absorbed dose, Osteogenic cells ([2]; Male (n = 8)): 1.20 ×10^−2 mGy/MBq
Estimated absorbed dose, Pancreas ([2]; Male (n = 8)): 1.03 ×10^−2 mGy/MBq
Estimated absorbed dose, Red marrow ([2]; Male (n = 8)): 0.82 ×10^−2 mGy/MBq
Estimated absorbed dose, Skin ([2]; Male (n = 8)): 0.61 ×10^−2 mGy/MBq
Estimated absorbed dose, Small intestine ([2]; Male (n = 8)): 1.11 ×10^−2 mGy/MBq
Estimated absorbed dose, Spleen ([2]; Male (n = 8)): 0.91 ×10^−2 mGy/MBq
Estimated absorbed dose, Stomach wall ([2]; Male (n = 8)): 0.94 ×10^−2 mGy/MBq
Estimated absorbed dose, Testes ([2]; Male (n = 8)): 0.77 ×10^−2 mGy/MBq
Estimated absorbed dose, Thymus ([2]; Male (n = 8)): 0.90 ×10^−2 mGy/MBq
Estimated absorbed dose, Thyroid ([2]; Male (n = 8)): 0.79 ×10^−2 mGy/MBq
Estimated absorbed dose, Total body ([2]; Male (n = 8)): 0.89 ×10^−2 mGy/MBq
Estimated absorbed dose, Upper large intestine wall ([2]; Male (n = 8)): 1.00 ×10^−2 mGy/MBq
Estimated absorbed dose, Urinary bladder wall ([2]; Male (n = 8)): 1.16 ×10^−2 mGy/MBq
whole-body effective dose ([2]; female animals): 24.5 μSv/MBq
whole-body effective dose ([2]; male animals): 20.5 μSv/MBq
estimated dosimetry (effective dose) ([2]; mouse, in vivo): 0.020 mSv/MBq
critical organ (dosimetry) ([2]; naïve mice): lower large intestine
Effective dose ([2]; range over male and female): 20.5–24.5 μSv/MBq
